From ChEMBL document CHEMBL1132717, “Development of fluorine-18-labeled 5-HT1A antagonists” (J Med Chem, 1999)

Experiments:
Rattus norvegicus [1] = organism: Rattus norvegicus; assay: Biodistribution of the [18F]-radiolabeled compound in rat cerebellum; type: ADME, organism-based; conditions: in vivo
Rattus norvegicus [2] = organism: Rattus norvegicus; assay: Biodistribution of the [18F]-radiolabeled compound in rat cortex; type: ADME, organism-based; conditions: in vivo
Rattus norvegicus [3] = organism: Rattus norvegicus; assay: Biodistribution of the [18F]-radiolabeled compound in rat hippocampus; type: ADME, organism-based; conditions: in vivo
Rattus norvegicus [4] = organism: Rattus norvegicus; assay: Biodistribution of the [18F]-radiolabeled compound in rat hypothalamus; type: ADME, organism-based; conditions: in vivo
[5] = molecular target: T1, 5-hydroxytryptamine receptor 1A (Homo sapiens, UniProt P08908); assay: In vitro inhibition of [3H]- 8-OH-DPAT binding to cloned cell line containing human 5-hydroxytryptamine 1A receptor by Panlabs assay
T1 sequence (P08908 whole entry): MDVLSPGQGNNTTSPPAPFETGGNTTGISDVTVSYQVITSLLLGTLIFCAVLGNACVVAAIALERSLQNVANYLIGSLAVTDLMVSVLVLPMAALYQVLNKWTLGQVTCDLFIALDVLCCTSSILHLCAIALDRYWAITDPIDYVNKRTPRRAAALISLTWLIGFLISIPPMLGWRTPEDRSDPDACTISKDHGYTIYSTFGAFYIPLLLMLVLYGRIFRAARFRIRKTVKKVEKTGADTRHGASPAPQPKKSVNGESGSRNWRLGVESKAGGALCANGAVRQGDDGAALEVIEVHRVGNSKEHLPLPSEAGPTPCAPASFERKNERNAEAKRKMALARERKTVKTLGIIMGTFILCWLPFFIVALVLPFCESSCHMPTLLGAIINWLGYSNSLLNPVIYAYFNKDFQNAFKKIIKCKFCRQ

[6] = molecular target: T1, 5-hydroxytryptamine receptor 1A; assay: In vitro inhibition of [3H]- 8-OH-DPAT binding to cloned cell line containing human 5-hydroxytryptamine 1A receptor
[7] = molecular target: T1, 5-hydroxytryptamine receptor 1A; assay: In vitro inhibition of [3H]- 8-OH-DPAT binding to cloned cell line containing human 5-hydroxytryptamine 1A receptor (Experiment 1)
[8] = molecular target: T1, 5-hydroxytryptamine receptor 1A; assay: In vitro inhibition of [3H]- 8-OH-DPAT binding to cloned cell line containing human 5-hydroxytryptamine 1A receptor (Experiment 2)

| SMILES | ID/g (Rattus norvegicus [1]) | ID/g (Rattus norvegicus [2]) | ID/g (Rattus norvegicus [3]) | ID/g (Rattus norvegicus [4]) | Ki [5] | Ki [6] | Ki [7] | Ki [8] |
| --- | --- | --- | --- | --- | --- | --- | --- | --- |
| COc1ccccc1N1CCN(CCN(C(=O)c2ccc(F)cc2)c2ccccn2)CC1 | 0.034% | 0.085% | 0.195% | 0.066% | – | – | – | – |
| COc1ccccc1N1CCN(CCN(C(=O)C2CCC(F)CC2)c2ccccn2)CC1 (stereo unspecified) | 0.064% | 0.823% | 1.298% | 0.499% | 247 pM | 515 pM | – | – |
| COc1ccccc1N1CCN(CCN(C(=O)c2ccc(F)c(C)c2)c2ccccn2)CC1 | 0.02% | 0.047% | 0.118% | – | 791 pM | – | 3960 pM | 1140 pM |
